The text below walks through data of patent publication US6762181B1, “Aminomethylpyrrolidine derivatives having aromatic substituents” (Daiichi Pharmaceutical Co., Ltd., priority 1999, dated 2004).

What is called MIC is the smallest concentration in the dilution series that meets the test's criterion for growth inhibition.

Holding throughout (assay): Antibacterial activity (MIC), Japan Society of Chemotherapy standard method
Type in all cases: cell-based

One experiment has as its system E. coli NIHJ. Here is the method:
(§1) Antibacterial activities of the compounds of the invention were measured in accordance with the standard method specified by the Japan Society of Chemotherapy, with the results shown in the following table as MIC values (μg/ml). In this connection, MIC values of levofloxacin (LVFX), ciprofloxacin (CPFX) and 5-amino-7-[3-(R)-[1-(S)-aminoethyl]pyrrolidin-1-yl]-6-fluoro-1-[2-(S)-fluoro-1-(R)-cyclopropyl]-8-methyl-1,4-dihydro-4-oxoquinoline-3-carboxylic acid (control drug 1) described in WO 9623782 are also shown for the sake of comparison with the MIC values of the compounds of the invention.

The subject of another experiment is E. faecalis ATCC 19433. Here is the method:
as §1

The subject of the next experiment is K. pneumoniae TYPE 1. Here is the method:
as §1

The test system of the next experiment is Pr. Vulgaris O8601. The method, then: as §1
The test system of the next experiment is Ps. aeruginosa 32104. Here is the method: as §1
The next experiment deals with Ps. aeruginosa 32121. Here is the method: as §1
The test system of the next experiment is S. aureus 870307. Here is the method: as §1
The test system of a further experiment is S. aureus FDA 209P. Here is the method: as §1
For the next experiment, the system named is S. epidermidis 56500. Here is the method:
as §1

The next experiment concerns S. flexneri 2A 5503. The method, then: as §1
The test system of another experiment is Ser. marcescens 10100. The method, then: as §1
The next experiment concerns Str. pneumoniae J24. The method, then:
as §1

In the next experiment the test system is Str. pyrogenes G-36. The method, then:
as §1

Another experiment concerns X. maltophilia IID 1275. The method, then:
as §1

Setting [1] is: Escherichia coli, read-out: MIC.
The mark [2] stands for this setting: Pseudomonas aeruginosa, 32104, Ps. aeruginosa 32104, read-out: MIC.
Where [3] appears, read: Staphylococcus aureus, FDA209P, read-out: MIC.
[4] abbreviates: Staphylococcus epidermidis, read-out: MIC.
Setting [5] is: Shigella flexneri, 2A5503, S. flexneri 2A 5503, read-out: MIC.
Setting [6] is: Serratia marcescens, 10100, Ser. marcescens 10100, read-out: MIC.
Where [7] appears, read: Streptococcus pneumoniae, J24, Str. pneumoniae J24, read-out: MIC.
[8] abbreviates: Enterococcus faecalis, ATCC19433, E. faecalis ATCC 19433, read-out: MIC.
Setting [9] is: Klebsiella pneumoniae, TYPE1, K. pneumoniae TYPE 1, read-out: MIC.
Where [10] appears, read: Proteus vulgaris, read-out: MIC.
Setting [11] is: Pseudomonas aeruginosa, 32121, Ps. aeruginosa 32121, read-out: MIC.
[12] abbreviates: Staphylococcus aureus, 870307, S. aureus 870307, read-out: MIC.
[13] abbreviates: Stenotrophomonas maltophilia, IID1275, X. maltophilia IID 1275, read-out: MIC.

Molecules are shown by their SMILES. ≈ marks a conversion by molar mass, not a printed value. Like-named read-outs stand apart in the source and are kept apart here. Some results are limits rather than exact numbers.

On to `Nc1c(F)c(N2CC[C@@H](C(N)c3ccccc3)C2)c(F)c2c1c(=O)c(C(=O)O)cn2[C@@H]1C[C@@H]1F` (single isomer, unassigned) [Example 1], for which the MIC in the experiment with E. coli NIHJ (setting [1]) was ≤ 0.003 µg/mL; against E. faecalis ATCC 19433 (E. faecalis ATCC 19433), 0.05 µg/mL (≈ 0.106 µM); in the experiment with K. pneumoniae TYPE 1 (K. pneumoniae TYPE 1) it was 0.05 µg/mL (≈ 0.106 µM); with Pr. Vulgaris O8601, 0.1 µg/mL (≈ 0.212 µM); in the experiment with Ps. aeruginosa 32104 (setting [2]) it was 0.2 µg/mL (≈ 0.423 µM); in the experiment with Ps. aeruginosa 32121 (Ps. aeruginosa 32121) it was 0.1 µg/mL (≈ 0.212 µM). Also, the MIC against S. aureus 870307 (S. aureus 870307) is 0.025 µg/mL (≈ 0.0529 µM); in the experiment on S. aureus FDA 209P (setting [3]), ≤ 0.003 µg/mL; in the experiment on S. epidermidis 56500 (setting [4]), ≤ 0.003 µg/mL; with S. flexneri 2A 5503 (setting [5]) it was 0.006 µg/mL (≈ 0.0127 µM); with Ser. marcescens 10100 (setting [6]), 0.1 µg/mL (≈ 0.212 µM); in the experiment with Str. pneumoniae J24 (setting [7]) it was 0.006 µg/mL (≈ 0.0127 µM). Moreover, the results for the MIC against Str. pyrogenes G-36 and against X. maltophilia IID 1275 (X. maltophilia IID 1275) were 0.013 µg/mL (≈ 0.0275 µM) and 0.1 µg/mL (≈ 0.212 µM), respectively.
Consider `Nc1c(F)c(N2CC[C@@H](C(N)c3ccccc3)C2)c(F)c2c1c(=O)c(C(=O)O)cn2[C@@H]1C[C@@H]1F` (single isomer, unassigned) [Example 2], for which the minimum inhibitory concentration (MIC) result in the experiment on E. coli NIHJ was “≦0.003 μg/ml”; in the experiment with E. faecalis ATCC 19433 (E. faecalis ATCC 19433) it was 0.006 µg/mL (≈ 0.0127 µM); against K. pneumoniae TYPE 1 (K. pneumoniae TYPE 1), 0.013 µg/mL (≈ 0.0275 µM); with Pr. Vulgaris O8601, 0.025 µg/mL (≈ 0.0529 µM); with Ps. aeruginosa 32104 (Ps. aeruginosa 32104), 0.1 µg/mL (≈ 0.212 µM); with Ps. aeruginosa 32121 (Ps. aeruginosa 32121), 0.025 µg/mL (≈ 0.0529 µM). Besides, the MIC entry with S. aureus 870307 (S. aureus 870307) is “≦0.003 μg/ml”; in the experiment on S. aureus FDA 209P, “≦0.003 μg/ml”; against S. epidermidis 56500, “≦0.003 μg/ml”; against S. flexneri 2A 5503 (S. flexneri 2A 5503), “≦0.003 μg/ml”; in the experiment with Ser. marcescens 10100 (Ser. marcescens 10100), 0.05 µg/mL (≈ 0.106 µM); against Str. pneumoniae J24 (Str. pneumoniae J24), “≦0.003 μg/ml”. For the same molecule, the MIC entry is “≦0.003 μg/ml” against Str. pyrogenes G-36 and 0.025 µg/mL (≈ 0.0529 µM) with X. maltophilia IID 1275 (X. maltophilia IID 1275).
`O=C(O)c1cn(C2CC2)c2cc(N3CCNCC3)c(F)cc2c1=O` [CPFX, ciprofloxacin, reference compound]: the MIC was ≤ 0.003 µg/mL in the experiment with E. coli NIHJ (setting [1]); 0.78 µg/mL (≈ 2.35 µM) in the experiment on E. faecalis ATCC 19433 (setting [8]); 0.025 µg/mL (≈ 0.0754 µM) in the experiment on K. pneumoniae TYPE 1 (setting [9]); ≤ 0.003 µg/mL with Pr. Vulgaris O8601 (setting [10]); 0.05 µg/mL (≈ 0.151 µM) in the experiment with Ps. aeruginosa 32104 (setting [2]); 0.025 µg/mL (≈ 0.0754 µM) in the experiment with Ps. aeruginosa 32121 (setting [11]). Besides, the MIC in the experiment on S. aureus 870307 (setting [12]) came to 3.13 µg/mL (≈ 9.45 µM); in the experiment with S. aureus FDA 209P (setting [3]), 0.1 µg/mL (≈ 0.302 µM); in the experiment with S. epidermidis 56500 (setting [4]) it was 0.2 µg/mL (≈ 0.604 µM); in the experiment with S. flexneri 2A 5503 (setting [5]), 0.006 µg/mL (≈ 0.0181 µM); in the experiment with Ser. marcescens 10100 (setting [6]), 0.025 µg/mL (≈ 0.0754 µM); with Str. pneumoniae J24 (setting [7]), 0.1 µg/mL (≈ 0.302 µM). Further, the results for the MIC in the experiment on Str. pyrogenes G-36 (read-out: MIC) and in the experiment with X. maltophilia IID 1275 (setting [13]) were 1.56 µg/mL (≈ 4.71 µM) and 0.78 µg/mL (≈ 2.35 µM), respectively.
Regarding `Cc1c(N2CC[C@@H]([C@H](C)N)C2)c(F)c(N)c2c(=O)c(C(=O)O)cn([C@@H]3C[C@@H]3F)c12` [Control drug 1, 5-amino-7-[3-(R)-[1-(S)-aminoethyl]pyrrolidin-1-yl]-6-fluoro-1-[2-(S)-fluoro-1-(R)-cyclopropyl]-8-methyl-1,4-dihydro-4-oxoquinoline-3-carboxylic acid, reference compound], the MIC worked out at 0.006 µg/mL (≈ 0.0148 µM) in the experiment on E. coli NIHJ (setting [1]); 0.025 µg/mL (≈ 0.0615 µM) in the experiment with E. faecalis ATCC 19433 (setting [8]); 0.05 µg/mL (≈ 0.123 µM) in the experiment with K. pneumoniae TYPE 1 (setting [9]); 0.013 µg/mL (≈ 0.032 µM) with Pr. Vulgaris O8601 (setting [10]); 0.1 µg/mL (≈ 0.246 µM) with Ps. aeruginosa 32104 (setting [2]); 0.05 µg/mL (≈ 0.123 µM) in the experiment on Ps. aeruginosa 32121 (setting [11]). The MIC in the experiment with S. aureus 870307 (setting [12]) is 0.025 µg/mL (≈ 0.0615 µM); in the experiment on S. aureus FDA 209P (setting [3]), ≤ 0.003 µg/mL; in the experiment with S. epidermidis 56500 (setting [4]) it was ≤ 0.003 µg/mL; in the experiment on S. flexneri 2A 5503 (setting [5]), 0.006 µg/mL (≈ 0.0148 µM); with Ser. marcescens 10100 (setting [6]) it was 0.1 µg/mL (≈ 0.246 µM); with Str. pneumoniae J24 (setting [7]), ≤ 0.003 µg/mL. Besides, the MIC in the experiment with Str. pyrogenes G-36 (read-out: MIC) was ≤ 0.003 µg/mL; in the experiment on X. maltophilia IID 1275 (setting [13]), 0.2 µg/mL (≈ 0.492 µM).
In the case of `COc1c(N2CC[C@@H](C(N)c3ccccc3)C2)c(F)cc2c(=O)c(C(=O)O)cn([C@@H]3C[C@@H]3F)c12` (stereo partly drawn) [Example 3, 7-[3-(R)-(1-Amino-1-Phenylmethyl)-1-Pyrrolidinyl]-6-Fluoro-1-[2-(S)-Fluoro-1-(R)-Cyclopropyl]-1,4-Dihydro-8-Methoxy-4-Oxoquinoline-3-Carboxylic Acid], the MIC is ≤ 0.003 µg/mL with E. coli NIHJ (setting [1]); 0.013 µg/mL (≈ 0.0277 µM) with E. faecalis ATCC 19433 (setting [8]); 0.025 µg/mL (≈ 0.0532 µM) in the experiment on K. pneumoniae TYPE 1 (setting [9]); 0.025 µg/mL (≈ 0.0532 µM) with Pr. Vulgaris O8601 (setting [10]); 0.1 µg/mL (≈ 0.213 µM) in the experiment with Ps. aeruginosa 32104 (setting [2]); 0.05 µg/mL (≈ 0.106 µM) in the experiment on Ps. aeruginosa 32121 (setting [11]). In addition, the MIC with S. aureus 870307 (setting [12]) was ≤ 0.003 µg/mL; in the experiment with S. aureus FDA 209P (setting [3]) it was ≤ 0.003 µg/mL; in the experiment on S. epidermidis 56500 (setting [4]), ≤ 0.003 µg/mL; in the experiment with S. flexneri 2A 5503 (setting [5]), ≤ 0.003 µg/mL; in the experiment with Ser. marcescens 10100 (setting [6]), 0.05 µg/mL (≈ 0.106 µM); in the experiment on Str. pneumoniae J24 (setting [7]), ≤ 0.003 µg/mL. Besides, the MIC in the experiment with Str. pyrogenes G-36 (read-out: MIC) is ≤ 0.003 µg/mL; in the experiment with X. maltophilia IID 1275 (setting [13]) it was 0.025 µg/mL (≈ 0.0532 µM).
